The values below come from patent US12653191B2, “Active compound combinations” (Bayer Aktiengesellschaft, priority 2020, dated 2026).

Several values for one entry are separate records, joined by “and”; a condition that tells them apart may be missing. Equal entries are not always repeated.

One data set concerns Alternaria alternate. Nature of the data set: in vitro-Test with fungal microorganisms, Method A (tables A1-A12). Format: cell-based, Alternaria alternata. The conditions noted are these: applied alone. In a few lines:
(§1)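 First, compound in methanol with alkylaryl-polyglycol-ether was dried down in the plate. Next, spore or mycelium suspension in potato dextrose broth was added and extinction read at 620 nm. After 3-5 days at 20° C, 85% RH, reading was repeated and efficacy scored against untreated wells.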

The next data set deals with Alternaria alternata. Nature of the data set: in vitro-Test with fungal microorganisms, Method B (tables A13-A22). Format: cell-based. The essentials:
(§2)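 Efficacy scale: 0% means growth equal to the untreated control, 100% means none detected. Compounds are dried from methanol with emulsifier before adding inoculated growth medium; incubation at 20° C., 85% relative humidity for 3 to 7 days precedes photometric inhibition readout.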

Data set [1] deals with Botrytis cinerea. Nature of the data set: in vitro-Test with fungal microorganisms, Method A (tables B1-B14). Format: cell-based. The conditions noted are these: for Efficacy %: alone. In a few lines: as §1
Data set [2] concerns Botrytis cinerea. As to the kind of experiment: in vitro-Test with fungal microorganisms, Method B (tables B15-B18). Format: cell-based. In a few lines: as §2
For data set [3], the system named is Cercospora beticola. As to the kind of experiment: in vitro-Test with fungal microorganisms, Method A (tables C1-C10). Format: cell-based. In a few lines: as §1
Data set [4] concerns Cercospora beticola. As to the kind of experiment: in vitro-Test with fungal microorganisms, Method B (tables C11-C20). Format: cell-based. The essentials:
as §2

The subject of data set [5] is Colletotrichum lindemuthianum. As to the kind of experiment: in vitro-Test with fungal microorganisms, Method A (tables D1-D8). The format is cell-based. In a few lines: as §1
The test system of a further data set is Cordana musae. As to the kind of experiment: in vitro-Test with fungal microorganisms, Method A (tables E1-E8). Format: cell-based. The following applies: single substance. The essentials: as §1
Data set [6] has as its system Diaporthe citri. As to the kind of experiment: in vitro-Test with fungal microorganisms, Method A (tables F1-F11). The format is cell-based. The essentials:
as §1

Data set [7] has as its system Diaporthe citri. Nature of the data set: in vitro-Test with fungal microorganisms, Method B (tables F12-F15). The format is cell-based. The conditions noted are these: Table F14. In a few lines:
as §2

The test system of data set [8] is Fusarium culmorum. Nature of the data set: in vitro-Test with fungal microorganisms, Method A (tables G1-G4). The format is cell-based. The following applies: Table G1. In a few lines: as §1
Data set [9] relates to Fusarium culmorum. As to the kind of experiment: in vitro-Test with fungal microorganisms, Method B (tables G5-G15). The format is cell-based. The conditions noted are these: single active compound. The essentials: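 Read photometrically at 600 nm after 3-7 days at 20° C and 85% relative humidity, Fusarium culmorum growth inhibition is expressed against untreated control. Wells hold solvent-evaporated compound (from methanol/emulsifier) overlaid with spore- or mycelium-amended growth medium.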

The test system of data set [10] is Parastagonospora nodorum. Nature of the data set: in vitro-Test with fungal microorganisms, Method A (tables H1-H4). Format: cell-based. In a few lines:
as §1

The test system of data set [11] is Parastagonospora nodorum. Nature of the data set: in vitro-Test with fungal microorganisms, Method B (tables H5-H8). Format: cell-based. The essentials: as §2
Data set [12] has as its system Ustilago segetum var. avenae. Nature of the data set: in vitro-Test with fungal microorganisms, Method A (tables I1-I5). The following applies: alone. The format is cell-based. The essentials: as §1
The subject of data set [13] is Ustilago segetum var. avenae. Nature of the data set: in vitro-Test with fungal microorganisms, Method B (tables I6-I11). Format: cell-based. The essentials: as §2
The test system of another data set is Colletotrichum coccodes. Nature of the data set: in vitro-Test with fungal microorganisms, Method B (tables J1-J11). Format: cell-based. The essentials: as §2
Data set [14] can be described thus: Log P by HPLC on reversed phase columns (LC-UV), method [a]: acidic range, 0.1% formic acid in water / acetonitrile. Format: physicochemical.
Protocol: Measurement of Log P Values
Measurement of Log P values as provided herein was performed according to EEC directive 79/831 Annex V.A8 by HPLC (High Performance Liquid Chromatography) on reversed phase columns with the following methods: • ^[a]
If more than one Log P value is available within the same method, all the values are given and separated by “+”.
Where [15] appears, read: method [a], acidic range (0.1% formic acid), Table 17, compounds of formula (10).

With `CC(O)(Cn1cncn1)c1ccc(Oc2ccc(Cl)cc2)cc1C(F)(F)F` (stereo not drawn) [(1.055) mefentrifluconazole, mefentrifluconazole], the Efficacy % was 9% in the data set on Alternaria alternate (0.008 ppm); 58% and 32% in the data set on Alternaria alternate (0.04 ppm); 96% and 100% in the data set with Alternaria alternate (0.2 ppm); 100% and 99% in the data set with Alternaria alternate (1.0 ppm); 0% with Botrytis cinerea [1] (0.008 ppm); 0% in the data set on Botrytis cinerea [1] (0.04 ppm). For the same compound, the Efficacy % in the data set on Botrytis cinerea [1] (0.2 ppm) amounted to 53%; with Botrytis cinerea [1] (1.0 ppm) it was 100%; in the data set on Botrytis cinerea [2] (0.008 ppm alone), 0%; in the data set on Botrytis cinerea [2] (0.04 ppm alone) it was 0%; in the data set with Botrytis cinerea [2] (0.2 ppm alone) it was 30%; with Cercospora beticola [3] (0.008 ppm), 12%. Besides, the Efficacy % in the data set with Cercospora beticola [3] (0.008 ppm alone) was 60% and 80%; in the data set with Cercospora beticola [3] (0.04 ppm), 100%; in the data set with Cercospora beticola [3] (0.04 ppm alone) it was 100% and 91%; in the data set on Cercospora beticola [3] (0.2 ppm) it was 100%; in the data set on Cercospora beticola [3] (0.2 ppm alone), 100%; in the data set with Cercospora beticola [3] (1.0 ppm), 100%. Besides, the Efficacy % with Cercospora beticola [3] (1.0 ppm alone) turned out to be 100%; in the data set with Cercospora beticola [4] (0.008 ppm) it was 24%; in the data set on Cercospora beticola [4] (0.04 ppm) it was 84%; with Cercospora beticola [4] (single compound, 0.008 ppm) it was 14%; in the data set with Cercospora beticola [4] (single compound, 0.04 ppm), 93%; in data set [5] (mixing partner alone, 0.008 ppm), 0%. Besides, the Efficacy % in data set [5] (mixing partner alone, 0.04 ppm) was 0%; in data set [5] (mixing partner alone, 0.2 ppm) it was 6%; in [5] (mixing partner alone, 1.0 ppm) it was 13%; in data set [5] (single active at 0.008 ppm) it was 7% and 0%; in [5] (single active at 0.04 ppm), 0% and 3%; in data set [5] (single active at 0.2 ppm) it was 11%. Also, the Efficacy % in data set [5] (single active at 1.0 ppm) was 0%; in the data set with Cordana musae (0.008 ppm), 4%; with Cordana musae (0.04 ppm) it was 29%; in the data set with Cordana musae (0.2 ppm), 100%; with Cordana musae (1.0 ppm) it was 100%; in data set [12] (0.008 ppm), 0%. The Efficacy % in [12] (0.04 ppm) was 4%; in [12] (0.2 ppm) it was 100%; in data set [12] (1.0 ppm), 100%; in data set [13] (0.008 ppm), 4%; in data set [13] (0.04 ppm), 3%; in [13] (0.2 ppm), 41%. The Efficacy % in data set [13] (1 ppm) is 100%; in [13] (alone, 0.2 ppm), 53%; in [13] (alone, 1 ppm), 100%; in the data set on Colletotrichum coccodes (0.008 ppm) it was 0%; in the data set on Colletotrichum coccodes (0.2 ppm) it was 34%; in the data set on Colletotrichum coccodes (1 ppm), 100%. For the same compound, the Efficacy % in the data set with Colletotrichum coccodes (single active compound at 0.2 ppm) was determined as 22%. The Efficacy in the data set with Alternaria alternata (0.008 ppm) is 9%; in the data set on Alternaria alternata (0.04 ppm), 19%; with Alternaria alternata (0.2 ppm), 91%; in the data set with Alternaria alternata (single compound, 0.2 ppm) it was 65%; in the data set with Alternaria alternata (single compound, 1 ppm) it was 99%; in the data set with Botrytis cinerea [1] (0.008 ppm) it was 0%. Also, the Efficacy is 37% with Botrytis cinerea [1] (0.04 ppm); 78% in the data set on Botrytis cinerea [1] (0.2 ppm); 0% with Diaporthe citri [6] (applied alone, 0.008 ppm); 60% and 38% in the data set with Diaporthe citri [6] (applied alone, 0.04 ppm); 100% in the data set with Diaporthe citri [6] (applied alone, 0.2 ppm); 100% with Diaporthe citri [6] (applied alone, 1.0 ppm). Also, the Efficacy is listed as 17% in the data set on Diaporthe citri [6] (single active, 0.008 ppm); 69% in the data set with Diaporthe citri [6] (single active, 0.04 ppm); 99% in the data set on Diaporthe citri [6] (single active, 0.2 ppm); 100% with Diaporthe citri [6] (single active, 1.0 ppm); 8% with Diaporthe citri [7] (0.008 ppm alone); 21% with Diaporthe citri [7] (0.04 ppm alone). In addition, the Efficacy with Diaporthe citri [7] (0.2 ppm alone) amounted to 94%; in the data set with Diaporthe citri [7] (1 ppm alone), 99%; with Fusarium culmorum [8] (0.008 ppm alone) it was 20%; in the data set with Fusarium culmorum [8] (0.04 ppm alone), 22%; with Fusarium culmorum [8] (0.2 ppm alone) it was 5%; in the data set on Fusarium culmorum [8] (1.0 ppm alone) it was 33%. Besides, the Efficacy in the data set with Fusarium culmorum [9] (0.008 ppm) was 11% and 3%; with Fusarium culmorum [9] (0.04 ppm) it was 16% and 24%; in the data set on Fusarium culmorum [9] (1 ppm), 24% and 33%; in the data set with Parastagonospora nodorum [10] (0.008 ppm), 89%; in the data set with Parastagonospora nodorum [10] (0.04 ppm), 99%; with Parastagonospora nodorum [10] (0.2 ppm), 99%. In addition, the Efficacy with Parastagonospora nodorum [10] (1.0 ppm) amounted to 100%; in the data set on Parastagonospora nodorum [10] (single active compound, 0.008 ppm), 90%; with Parastagonospora nodorum [10] (single active compound, 0.04 ppm), 97%; in the data set with Parastagonospora nodorum [10] (single active compound, 0.2 ppm), 100%; in the data set with Parastagonospora nodorum [10] (single active compound, 1.0 ppm) it was 100%; with Parastagonospora nodorum [11] (0.008 ppm), 84%. In addition, the Efficacy with Parastagonospora nodorum [11] (0.04 ppm) was 99%.
As for `CON(C)C(=O)c1cc(Cl)nnc1Oc1cccc(C(F)(F)F)c1` [Compound 1-07], in data set [14] (method [a], acidic range (0.1% formic acid), Table 3, compounds of formula (1)), the LogP is 2.90^[a].
On to `Cc1cc(C(=O)NC(CON2C(=O)c3ccccc3C2=O)Cc2ccc(C)c(C)c2)c(Oc2cccc(Cl)c2F)nn1` (stereo not drawn) [Compound 3-45], for which the LogP in data set [14] (method [a], acidic range (0.1% formic acid), Table 7, compounds of formula (3)) is 4.42^[a].
In the case of `COc1cccc(Oc2nnc(Cl)cc2C#N)c1` [Compound 9-08], the chromatographic logP in [14] (method [a], acidic range (0.1% formic acid), Table 15, compounds of formula (9)) amounted to 2.75.
Regarding `N/C(=N\O)c1cc(Cl)nnc1Oc1cccc(Cl)c1` [Compound 10-04], the chromatographic logP in data set [14] (setting [15]) amounted to 2.
The same measure, in the same setting: then `N/C(=N\O)c1cc(Cl)nnc1Oc1cccc(Br)c1F` [Compound 10-05], with 2.21; and `N/C(=N\O)c1cc(Cl)nnc1Oc1cccc(C2CC2)c1F` [Compound 10-07], with 2.34; and `N/C(=N\O)c1cc(Cl)nnc1Oc1cccc(C2CC2)c1` [Compound 10-08], with 2.19.
Still for that read-out and setting: then `N/C(=N\O)c1cc(Cl)nnc1Oc1cccc(C(F)F)c1F` [Compound 10-09], with 1.91.
`Cc1ccc(CC(CCl)NC(=NO)c2cc(Cl)nnc2Oc2cccc(C(F)(F)F)c2)c(C)c1` (stereo not drawn) [Compound 20-08]: the LogP in data set [14] (method [a]) is 2.77^[a].
Regarding `FC(F)(F)c1cccc(Oc2nnc(Cl)cc2C2=NOC[C@H](Cc3ccccc3)N2)c1` [Compound I-070, (5S)-5-benzyl-3-[6-chloro-3-[3-(trifluoro-methyl)phenoxy]pyridazin-4-yl]-5,6-dihydro-4H-1,2,4-oxadiazine], the LogP in data set [14] (method [a]: HPLC, acidic range, 0.1% formic acid in water / acetonitrile) is 3.81^[a].
